Source: patent US4175125A, “Method for treating methicillin resistant staphylococcus aureus” (Eli Lilly and Company, priority 1978, dated 1979)
≈ marks a conversion by molar mass, not a printed value. Where two headings read alike, the source gives them in different places.

Columns and labels:
[1] = tested on: Streptococcus pyogenes, strain C203; test: Streptococcus pyogenes infection in mice, median effective dose (Example 12); assay type: in vivo
Experimental: The compound 7-[2"-(3"-chloro-4"-fluorophenyltio)acetamido]cephalosporanic acid, prepared as described in Example 8, was tested for antibiotic effectiveness against Streptococcus pyogenes, strain C203 infections in mice, and is compared with the effectiveness of cephaloridine in the same test. Experience has shown with other compounds, some of which are now commercial antibiotics, that a compound effective against Streptococcus pyrogenes, strain C203 in this test will be effective against Staphylococcus aureus strains in clinical use. This is intended as further evidence that the compounds of the method of this invention should be effective antibiotics in clinical situations.
In this test, a standard in vivo test method described by Wick, W. E., F. Streightoff, and D. H. Holmes. 1961, in J. Bacteriol., 81: 233-235 was used. The oral and subcutaneous median effective doses (ED50) necessary to cure 50 percent of the mice were calculated according to the method of Reed and Muench (Reed, L. J., and H. Meunch. 1938. Am. J. Hyg. 27: 493-497) The results were as follows: […]

[2] = tested on: Staphylococcus aureus cultures; test: Agar dilution MIC, Example 13 compound vs methicillin resistant Staphylococcus aureus; assay type: cell-based; settings: read-out: MIC
From the text: The table which follows gives the minimum inhibitory concentration (MIC) in micrograms of compound per milliliter of culture (μg/ml), in comparison with similar MIC values for the known antibiotics methicillin, cephalothin and cephaloridine against the same strains of bacteria.

[3] = tested on: methicillin-resistant Staphylococcus aureus; test: Gradient plate test (MIC) against methicillin-resistant Staphylococcus aureus; assay type: cell-based; settings: Staphylococcus aureus, read-out: minimum inhibitory concentration (MIC)
Experimental: The method used is essentially that described by Bryson and Szybalski in 1952 (Science 116:45-46). The inoculum treatment method used for penicillin resistant Staphylococci was reported by Godzeski et al in Antimicrobial Agents and Chemotherapy, May, 1969, pp. 547-554.
A standard Falcon square plastic petri dish is used. A layer of agar (10 ml.) is poured into one of the square dishes, the dish tipped 5 mm. off the horizontal, and the agar layer allowed to harden in this position. This bottom layer of agar contains the antibiotic, the serum, and/or other material to be tested. The medium is Difco Penassay Agar containing 2 percent agar. We routinely used 4 ml. of human or horse serum for "serum-inactivation" testing. […] Therefore, serum is routinely added only to the bottom layer.
After the bottom, slanted layer of agar medium has hardened, the plate is placed flat and another 10 ml. of medium added and allowed to harden.
The inoculum of resistant Staphylococci, as described, is prepared by diluting the water suspension 1/50 in 0.25 percent agar in sterile water or saline. For Gram negative organisms, an overnight broth culture is diluted 1/50 in the 0.25 percent agar-water. This dilution is thoroughly shaken to evenly suspend the bacteria. To streak the plate, we use a 1 ml. pipet containing an aliquot of the final […] agar dilution. After a little practice, a smooth even stroke of inoculum can be laid down very rapidly. The trick is in the smoothness of the streak--it must be accomplished uniformly and quickly.
After 24 hours incubation at 35°-37° C. the plates are read by simply measuring the length of bacterial growth as a percentage of the entire streak distance which is then converted to the percent of antibiotic concentration in the plate.
Average values of duplicate measurements are calculated and the M.I.C.'s reported are average of 2 streaks on the plate and from 2 to 3 duplicate plates. Eight streaks can be easily placed on each plate. If sharp end points are not obtained, the middle concentration between the beginning of inhibition of the streak to the end of growth is measured. The concentration of the antibiotic under examination is varied from plate to plate in a series as follows: […]
This method of screening penicillins and cephalosporins is quite satisfactory. Control plates containing penicillin and staphcillin or prostaphlin, or other control antibiotic, are used daily for the resistant staphylococcal activity screen. The gradient plate method has shown differences between antibiotics that were not apparent by any other methods of screening. […] We believe that the gradient plate screen is more sensitive to small differences between related antibiotics than other methods and pictures of the plates can provide a permanent record. The method also lends itself readily to modification of specific purposes--e.g., cross gradients.
The compounds listed below are examples of compounds useful in the method of this invention. After the compound name there is given in parentheses, where tested, the minimum inhibitory concentrations (MIC) in micrograms per milliliter (μg/ml) for the compound in the above described gradient plate procedure test against methicillin-resistant Staphylococcus aureus, (in the absence of blood serum/in the presence of 20 percent blood serum).
and pharmaceutically acceptable salts thereof. The abbreviation "s.z." means skip zones.

[4] = in the presence of 20 percent blood serum

O=C(Cc1cccs1)N[C@@H]1C(=O)N2C(C(=O)[O-])=C(C[n+]3ccccc3)CS[C@H]12 [Cephaloridine, cephaloridine, reference compound]
ED50 ([1]; C203, po): 0.323 mg/kg
ED50 ([1]; C203, sc): 0.1 mg/kg
MIC ([2]; culture 3055 (control), Trypticase Soy Agar with 4.5% NaCl added (5% NaCl)): 0.13 µg/mL (≈ 0.313 µM)
MIC ([2]; culture 3055 (control), Trypticase Soy Agar, 0.5% NaCl): 0.03 µg/mL (≈ 0.0722 µM)
MIC ([2]; culture 3130, Trypticase Soy Agar with 4.5% NaCl added (5% NaCl)): 1 µg/mL (≈ 2.41 µM)
MIC ([2]; culture 3130, Trypticase Soy Agar, 0.5% NaCl): 0.5 µg/mL (≈ 1.2 µM)
MIC ([2]; culture 3131, Trypticase Soy Agar with 4.5% NaCl added (5% NaCl)): 1 µg/mL (≈ 2.41 µM)
MIC ([2]; culture 3131, Trypticase Soy Agar, 0.5% NaCl): 0.5 µg/mL (≈ 1.2 µM)
MIC ([2]; culture 3132, Trypticase Soy Agar with 4.5% NaCl added (5% NaCl)): 0.5 µg/mL (≈ 1.2 µM)
MIC ([2]; culture 3132, Trypticase Soy Agar, 0.5% NaCl): 0.25 µg/mL (≈ 0.602 µM)
MIC ([2]; culture 3133, Trypticase Soy Agar with 4.5% NaCl added (5% NaCl)): 0.25 µg/mL (≈ 0.602 µM)
MIC ([2]; culture 3133, Trypticase Soy Agar, 0.5% NaCl): 0.13 µg/mL (≈ 0.313 µM)
MIC ([2]; culture 3134, Trypticase Soy Agar with 4.5% NaCl added (5% NaCl)): 1 µg/mL (≈ 2.41 µM)
MIC ([2]; culture 3134, Trypticase Soy Agar, 0.5% NaCl): 1 µg/mL (≈ 2.41 µM)
MIC ([2]; culture 3135, Trypticase Soy Agar with 4.5% NaCl added (5% NaCl)): 4 µg/mL (≈ 9.63 µM)
MIC ([2]; culture 3135, Trypticase Soy Agar, 0.5% NaCl): 0.5 µg/mL (≈ 1.2 µM)
MIC ([2]; culture 3136, Trypticase Soy Agar with 4.5% NaCl added (5% NaCl)): 4 µg/mL (≈ 9.63 µM)
MIC ([2]; culture 3136, Trypticase Soy Agar, 0.5% NaCl): 0.13 µg/mL (≈ 0.313 µM)
MIC ([2]; culture 3137, Trypticase Soy Agar with 4.5% NaCl added (5% NaCl)): 4 µg/mL (≈ 9.63 µM)
MIC ([2]; culture 3137, Trypticase Soy Agar, 0.5% NaCl): 4 µg/mL (≈ 9.63 µM)
MIC ([2]; culture 3138, Trypticase Soy Agar with 4.5% NaCl added (5% NaCl)): 4 µg/mL (≈ 9.63 µM)
MIC ([2]; culture 3138, Trypticase Soy Agar, 0.5% NaCl): 1 µg/mL (≈ 2.41 µM)
MIC ([2]; culture 3139, Trypticase Soy Agar with 4.5% NaCl added (5% NaCl)): 0.13 µg/mL (≈ 0.313 µM)
MIC ([2]; culture 3139, Trypticase Soy Agar, 0.5% NaCl): 0.5 µg/mL (≈ 1.2 µM)
MIC ([2]; culture H232 (control), Trypticase Soy Agar with 4.5% NaCl added (5% NaCl)): 0.13 µg/mL (≈ 0.313 µM)
MIC ([2]; culture H232 (control), Trypticase Soy Agar, 0.5% NaCl): 0.06 µg/mL (≈ 0.144 µM)
MIC ([2]; culture Havarmak 1136501, Trypticase Soy Agar with 4.5% NaCl added (5% NaCl)): 8 µg/mL (≈ 19.3 µM)
MIC ([2]; culture Havarmak 1136501, Trypticase Soy Agar, 0.5% NaCl): 1 µg/mL (≈ 2.41 µM)
MIC ([2]; culture S 61, Trypticase Soy Agar with 4.5% NaCl added (5% NaCl)): 1 µg/mL (≈ 2.41 µM)
MIC ([2]; culture S 61, Trypticase Soy Agar, 0.5% NaCl): 1 µg/mL (≈ 2.41 µM)
MIC ([2]; culture Seattle 966, Trypticase Soy Agar with 4.5% NaCl added (5% NaCl)): 0.13 µg/mL (≈ 0.313 µM)
MIC ([2]; culture Seattle 966, Trypticase Soy Agar, 0.5% NaCl): 0.5 µg/mL (≈ 1.2 µM)

CC(=O)OCC1=C(C(=O)O)N2C(=O)C(NC(=O)CSc3ccc(Cl)c(Cl)c3)C2SC1 (stereo not drawn) [Example 1, 7-(3,4-dichlorophenylthioacetamido)cephalosporanic acid]
MIC ([3]; in the absence of blood serum): 1 µg/mL (≈ 2.04 µM)
MIC [3, 4]: 1.7 µg/mL

CC(=O)OCC1=C(C(=O)O)N2C(=O)C(NC(=O)CSc3cc(Cl)cc(Cl)c3)C2SC1 (stereo not drawn) [Example 3, 7-(3,5-Dichlorophenylthioacetamido)-cephalosporanic acid]
MIC ([3]; in the absence of blood serum): 2 µg/mL (≈ 4.07 µM)
MIC [3, 4]: 8.7 µg/mL
